Measurements taken from ChEMBL document CHEMBL1201862, “PubChem BioAssay data set” (2004).
Active and inactive are the calls of the source.

Key:
[1] = molecular target: Mitogen-activated protein kinase 10 (Homo sapiens, UniProt P53779); experiment: Dose response biochemical screening assay for inhibitors of c-Jun N-Terminal Kinase 3 (JNK3). [Related pubchem assays: 746 ]
[2] = Luminescence Cell-Based Dose Confirmation HTS to Identify Activators of 5'UTR Stem-Loop Driven Alpha-Synuclein mRNA Translation in H4 Neuroglioblastoma Cells. [Related pubchem assays: 1829 (Project Summary), 1814 (Primary HTS)]; assay type: functional
[3] = Luminescence Cell-Based Dose Response HTS to Identify Activators of Luciferase Translation or Activity in H4 […] Cells. [Related pubchem assays: 1829 (Project Summary), 1814 (Primary HTS)]; assay type: functional
BJ [4] = experiment: BJ-TERT fibroblast viability loss – cell-based, RAS-independent, luminescence, dose response (AID 1933); assay type: functional, Homo sapiens; settings: Homo sapiens, BJ
H4 = experiment: Luminescence Cell-Based Dose Response HTS to Identify Activators of 5'UTR Stem-Loop Driven Prion Protein mRNA Translation in H4 Neuroglioblastoma Cells. [Related pubchem assays: 1829 (Project Summary), 1814 (Primary HTS)]; assay type: functional; settings: Homo sapiens
BJ [5] = experiment: cells; assay type: functional, cell-based, Homo sapiens; settings: Homo sapiens, BJ
Large T antigen = Large T antigen (Simian virus 40, UniProt P03070); assay type: functional, Betapolyomavirus macacae;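 also: Confirmatory-stage PubChem screen for compounds that inhibit SV40 T antigen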
BJ [6] = experiment: BJ-TERT-LT-ST fibroblast viability loss – cell-based, RAS-independent, luminescence, dose response (AID 1935); assay type: functional, Homo sapiens; settings: Homo sapiens, BJ;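 also: BJ fibroblasts immortalized with TERT plus LT and ST oncogenes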
[7] = DRD fibroblast viability loss – cell-based, non-viral oncogenic, luminescence, dose response (AID 1934); assay type: functional; settings: Homo sapiens
[8] = molecular target: Neurotensin receptor type 1 (Homo sapiens, UniProt P30989); assay type: functional;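 also: Image-based confirmatory dose-response assay measuring agonist activity at NTR1; NTR1-expressing U2OS osteosarcoma cells imaged for beta-arrestin GFP spot formation; agonist potency where compounds increase beta-arrestin recruitment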
[9] = viability loss in THP-1 monocytes – THP-1 cells, cytotoxicity control for Vif-APOBEC3G degradation inhibitor project, dose response (AID 1117359); assay type: functional; settings: THP-1
[10] = molecular target: Metabotropic glutamate receptor 5 (Rattus norvegicus, UniProt P31424); experiment: Identification of a glycine sulfonamide based non-MPEP site positive allosteric potentiator (PAM) of mGlu5 (calcium_assay).; assay type: functional
[11] = growth inhibition of yeast DHODH-expressing 3D7 parasites – SYBR Green, dry powder samples, dose response (AID 1159570); assay type: functional, cell-based;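 also: parasite growth measured after 72 hours of compound exposure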
[12] = Dd2 parasite growth inhibition in erythrocytes – SYBR Green, dry powder samples, set 9, dose response (AID 1159568); assay type: functional, cell-based
[13] = P. falciparum Dd2 growth inhibitors, dose response, SYBR Green, cherry-picked samples (AID 1159567); assay type: functional, cell-based
[14] = Dd2 malaria parasite growth inhibition potency – SYBR Green, dry powder samples, dose response (AID 1159566); assay type: functional, cell-based;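 also: potency for growth inhibition with lower SYBR green DNA signal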
[15] = Plasmodium falciparum Dd2 Sybr green parasite growth Measured in Cell-Based and Microorganism Combination System Using Plate Reader - 2153-01_Inhibitor_Dose_DryPowder_Activity_Set3.; assay type: functional
[16] = growth inhibition of PfATP4-mutant resistant parasites – NITD609-resistant line, SYBR Green, dry powder, dose response (AID 1159571); assay type: functional, cell-based;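 also: parasites synchronized at ring stage by sorbitol before testing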
[17] = Luminescent dose response cell-based high throughput screening assay for inhibitors of the Janus kinase 2 mutant JAK2V617F. [Related pubchem assays: 1446 (Primary screen.), 1521 (Confirmation assay.), 1486 (Counter screen.)]; assay type: functional
[18] = viability inhibitors of stage V gametocytes – luminescence, dose response (AID 1117278); assay type: functional, cell-based;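 also: gametocytes exposed to compound for 24 hours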
[19] = viability loss in human Jurkat cells – cell-based, luminescence, cytotoxicity control for P. falciparum gametocyte viability project, dose response (AID 1117277); assay type: functional;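 also: potency reflects loss of cellular ATP meaning fewer viable cells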
[20] = molecular target: T1, RNA-binding protein pos-1 (Caenorhabditis elegans, UniProt G5EF15); experiment: disruptors of C. elegans POS-1 RNA interaction – biochemical, fluorescence polarization, dose response (AID 1964);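 also: purified POS-1 fused to maltose binding protein made in E. coli; potency of compounds blocking POS-1 binding to fluorescent RNA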
T1 sequence (G5EF15 whole entry): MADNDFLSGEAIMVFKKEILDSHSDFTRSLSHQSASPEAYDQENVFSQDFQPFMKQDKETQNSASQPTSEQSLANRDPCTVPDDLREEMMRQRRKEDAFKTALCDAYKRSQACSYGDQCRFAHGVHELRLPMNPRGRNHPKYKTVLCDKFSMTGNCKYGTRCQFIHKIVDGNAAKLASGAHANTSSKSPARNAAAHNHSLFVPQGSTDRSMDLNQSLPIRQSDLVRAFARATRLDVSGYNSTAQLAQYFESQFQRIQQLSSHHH

[21] = molecular target: T2, Zinc finger protein mex-5 (Caenorhabditis elegans, UniProt Q9XUB2); experiment: potency of MEX-5 RNA-binding blockers – biochemical, C. elegans, fluorescence polarization, dose response (AID 1960)
T2 sequence (Q9XUB2 whole entry): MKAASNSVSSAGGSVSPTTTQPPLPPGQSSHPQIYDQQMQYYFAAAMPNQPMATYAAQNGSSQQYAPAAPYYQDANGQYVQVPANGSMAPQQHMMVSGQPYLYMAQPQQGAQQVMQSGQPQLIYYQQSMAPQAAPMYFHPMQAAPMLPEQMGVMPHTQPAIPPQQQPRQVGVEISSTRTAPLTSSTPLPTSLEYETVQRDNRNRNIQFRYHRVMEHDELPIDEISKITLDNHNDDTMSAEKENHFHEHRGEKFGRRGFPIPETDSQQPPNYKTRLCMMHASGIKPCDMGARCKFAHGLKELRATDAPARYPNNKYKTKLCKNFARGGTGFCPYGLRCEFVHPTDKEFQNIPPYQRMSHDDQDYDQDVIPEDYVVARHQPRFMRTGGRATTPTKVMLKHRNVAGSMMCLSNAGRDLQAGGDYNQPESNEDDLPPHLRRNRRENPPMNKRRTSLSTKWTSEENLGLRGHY

Genome polyprotein = Genome polyprotein (dengue virus type 2, UniProt P29990); experiment: flavivirus cap methylation enzyme inhibition – biochemical, confirmation dose response, primary screen (AID 588689); assay type: functional
[22] = Luminescence Cell-Based Dose Response to Identify Activators of 5'UTR Stem-Loop Driven Prion Protein mRNA Translation in H4-C Neuroglioblastoma Cells. [Related pubchem assays: 1829 (Project Summary), 1814 (Primary HTS)]; assay type: functional
[23] = Luminescence Cell-Based Dose Response to Identify Activators of Luciferase Translation or Activity in H4-C Neuroglioblastoma Cells. [Related pubchem assays: 1829 (Project Summary), 1814 (Primary HTS)]; assay type: functional
[24] = Luminescence Cell-Based Dose Confirmation to Identify Activators of 5'UTR Stem-Loop Driven Alpha-Synuclein mRNA Translation in H4 Neuroglioblastoma Cells. [Related pubchem assays: 1829 (Project Summary), 1814 (Primary HTS)]; assay type: functional
Paired box protein Pax-8 = Paired box protein Pax-8 (Homo sapiens, UniProt Q06710); experiment: PAX8 transcriptional activity inhibition in RMG-I – RMG-I cells, luciferase, cherry-pick, dose response (AID 687027); assay type: functional, cell-based;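 also: luciferase reporter driven by Pax8 target thyroperoxidase promoter measured by SteadyGlo luminescence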
[25] = A2780 cell killing – plate reader, dry powder samples, cytotoxicity control, dose response (AID 743046); assay type: functional, cell-based
[26] = OVCAR-3 cell viability loss – plate reader, dry powder samples, PAX8 inhibitor project, dose response (AID 743044); assay type: functional, cell-based
[27] = OVCAR8 cell viability loss – plate reader, dry powder samples, PAX8 project, dose response (AID 743197); assay type: functional, cell-based; settings: OVCAR-8

Chain of Metabotropic glutamate receptor 5 (P31424 whole entry): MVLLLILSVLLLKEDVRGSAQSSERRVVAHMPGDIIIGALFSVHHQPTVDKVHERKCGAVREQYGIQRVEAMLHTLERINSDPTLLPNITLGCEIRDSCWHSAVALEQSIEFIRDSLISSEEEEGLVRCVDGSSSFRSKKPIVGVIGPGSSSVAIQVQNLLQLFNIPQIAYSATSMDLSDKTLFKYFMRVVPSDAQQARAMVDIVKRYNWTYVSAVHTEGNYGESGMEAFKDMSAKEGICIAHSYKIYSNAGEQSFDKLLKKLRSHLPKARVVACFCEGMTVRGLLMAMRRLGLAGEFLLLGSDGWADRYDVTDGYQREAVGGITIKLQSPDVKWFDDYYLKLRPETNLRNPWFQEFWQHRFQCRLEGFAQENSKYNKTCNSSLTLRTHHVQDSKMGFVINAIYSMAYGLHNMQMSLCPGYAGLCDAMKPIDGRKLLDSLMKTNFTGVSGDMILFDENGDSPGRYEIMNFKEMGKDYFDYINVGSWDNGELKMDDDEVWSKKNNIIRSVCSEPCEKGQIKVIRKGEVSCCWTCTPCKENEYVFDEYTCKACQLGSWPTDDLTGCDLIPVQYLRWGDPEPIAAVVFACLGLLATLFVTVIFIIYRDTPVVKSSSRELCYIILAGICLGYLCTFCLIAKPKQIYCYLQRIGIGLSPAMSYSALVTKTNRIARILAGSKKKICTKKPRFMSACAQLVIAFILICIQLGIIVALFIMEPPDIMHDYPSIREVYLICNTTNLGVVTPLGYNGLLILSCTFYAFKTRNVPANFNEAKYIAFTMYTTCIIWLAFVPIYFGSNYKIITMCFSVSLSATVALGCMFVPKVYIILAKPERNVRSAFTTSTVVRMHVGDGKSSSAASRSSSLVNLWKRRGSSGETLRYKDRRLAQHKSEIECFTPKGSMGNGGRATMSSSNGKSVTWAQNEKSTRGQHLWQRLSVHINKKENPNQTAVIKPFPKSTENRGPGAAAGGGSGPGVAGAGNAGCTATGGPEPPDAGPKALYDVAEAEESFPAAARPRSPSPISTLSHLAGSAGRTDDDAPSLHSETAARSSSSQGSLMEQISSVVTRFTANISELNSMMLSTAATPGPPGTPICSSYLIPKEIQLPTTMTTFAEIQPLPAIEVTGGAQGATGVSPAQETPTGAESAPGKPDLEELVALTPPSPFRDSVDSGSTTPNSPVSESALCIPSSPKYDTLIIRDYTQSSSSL
Chain of Genome polyprotein (P29990 2492-3391 limits assumed): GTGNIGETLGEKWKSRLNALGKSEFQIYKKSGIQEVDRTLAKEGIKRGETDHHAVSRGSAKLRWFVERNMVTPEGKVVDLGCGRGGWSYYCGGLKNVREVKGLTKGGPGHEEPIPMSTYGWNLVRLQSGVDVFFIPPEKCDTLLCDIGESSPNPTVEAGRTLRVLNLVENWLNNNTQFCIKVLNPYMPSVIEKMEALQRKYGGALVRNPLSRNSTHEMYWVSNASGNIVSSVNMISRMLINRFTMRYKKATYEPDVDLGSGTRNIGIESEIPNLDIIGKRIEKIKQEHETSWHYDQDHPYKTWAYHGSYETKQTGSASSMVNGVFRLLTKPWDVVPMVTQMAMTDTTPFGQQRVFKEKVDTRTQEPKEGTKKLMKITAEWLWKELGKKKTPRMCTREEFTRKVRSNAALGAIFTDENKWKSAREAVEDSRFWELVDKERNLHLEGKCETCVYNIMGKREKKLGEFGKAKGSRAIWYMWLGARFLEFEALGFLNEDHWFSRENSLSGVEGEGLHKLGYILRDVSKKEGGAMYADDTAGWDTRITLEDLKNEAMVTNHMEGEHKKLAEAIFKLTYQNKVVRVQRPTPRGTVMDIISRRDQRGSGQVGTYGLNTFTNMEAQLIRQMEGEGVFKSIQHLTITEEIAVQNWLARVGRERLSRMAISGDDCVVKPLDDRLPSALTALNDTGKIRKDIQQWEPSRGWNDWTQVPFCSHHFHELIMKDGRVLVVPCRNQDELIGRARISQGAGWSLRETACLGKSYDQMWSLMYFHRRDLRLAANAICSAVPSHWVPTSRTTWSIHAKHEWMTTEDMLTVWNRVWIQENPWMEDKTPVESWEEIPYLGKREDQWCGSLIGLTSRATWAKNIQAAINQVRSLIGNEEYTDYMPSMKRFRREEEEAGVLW
Chain of Neurotensin receptor type 1 (P30989 whole entry): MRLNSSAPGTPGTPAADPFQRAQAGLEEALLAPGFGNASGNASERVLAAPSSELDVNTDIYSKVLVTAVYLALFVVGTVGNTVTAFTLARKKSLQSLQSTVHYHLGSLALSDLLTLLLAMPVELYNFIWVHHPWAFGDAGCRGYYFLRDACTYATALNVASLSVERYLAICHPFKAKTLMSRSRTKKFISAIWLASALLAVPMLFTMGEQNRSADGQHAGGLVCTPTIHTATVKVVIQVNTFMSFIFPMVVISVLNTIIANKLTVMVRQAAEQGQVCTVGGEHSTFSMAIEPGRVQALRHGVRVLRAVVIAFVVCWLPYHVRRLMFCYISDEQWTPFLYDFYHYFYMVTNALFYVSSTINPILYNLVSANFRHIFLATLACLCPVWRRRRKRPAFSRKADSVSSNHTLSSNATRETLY
Chain of Large T antigen (P03070 whole entry): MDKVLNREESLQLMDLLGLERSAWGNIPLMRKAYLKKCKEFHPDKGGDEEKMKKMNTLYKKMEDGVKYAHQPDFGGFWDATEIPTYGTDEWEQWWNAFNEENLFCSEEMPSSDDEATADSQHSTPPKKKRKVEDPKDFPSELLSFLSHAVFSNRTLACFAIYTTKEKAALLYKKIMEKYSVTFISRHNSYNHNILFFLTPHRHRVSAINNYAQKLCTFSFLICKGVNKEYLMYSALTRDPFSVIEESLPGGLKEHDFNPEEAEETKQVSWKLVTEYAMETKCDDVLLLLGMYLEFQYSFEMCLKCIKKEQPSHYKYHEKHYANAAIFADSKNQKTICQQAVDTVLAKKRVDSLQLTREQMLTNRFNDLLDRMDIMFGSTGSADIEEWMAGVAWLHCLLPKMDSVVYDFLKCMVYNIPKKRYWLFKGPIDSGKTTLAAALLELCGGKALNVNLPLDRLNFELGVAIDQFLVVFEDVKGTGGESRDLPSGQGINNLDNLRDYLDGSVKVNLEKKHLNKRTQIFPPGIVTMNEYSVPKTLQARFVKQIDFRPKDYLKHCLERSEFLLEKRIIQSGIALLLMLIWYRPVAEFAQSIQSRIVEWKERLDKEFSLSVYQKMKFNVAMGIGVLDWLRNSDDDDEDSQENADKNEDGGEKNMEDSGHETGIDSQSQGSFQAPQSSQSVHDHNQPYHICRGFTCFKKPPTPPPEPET
Chain of Paired box protein Pax-8 (Q06710 whole entry): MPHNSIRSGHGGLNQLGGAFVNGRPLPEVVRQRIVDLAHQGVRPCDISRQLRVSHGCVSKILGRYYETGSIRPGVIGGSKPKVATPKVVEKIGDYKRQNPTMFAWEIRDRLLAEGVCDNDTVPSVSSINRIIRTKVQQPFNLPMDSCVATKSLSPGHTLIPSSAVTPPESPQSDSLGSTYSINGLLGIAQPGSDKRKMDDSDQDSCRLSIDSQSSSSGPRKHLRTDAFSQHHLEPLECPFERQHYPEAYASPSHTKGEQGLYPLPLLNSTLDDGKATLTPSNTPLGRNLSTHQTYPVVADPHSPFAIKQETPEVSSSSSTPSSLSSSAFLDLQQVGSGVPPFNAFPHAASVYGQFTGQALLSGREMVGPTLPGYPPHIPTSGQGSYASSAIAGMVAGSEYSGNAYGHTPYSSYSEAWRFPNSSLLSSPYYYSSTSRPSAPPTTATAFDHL
Chain of Mitogen-activated protein kinase 10 (P53779 whole entry): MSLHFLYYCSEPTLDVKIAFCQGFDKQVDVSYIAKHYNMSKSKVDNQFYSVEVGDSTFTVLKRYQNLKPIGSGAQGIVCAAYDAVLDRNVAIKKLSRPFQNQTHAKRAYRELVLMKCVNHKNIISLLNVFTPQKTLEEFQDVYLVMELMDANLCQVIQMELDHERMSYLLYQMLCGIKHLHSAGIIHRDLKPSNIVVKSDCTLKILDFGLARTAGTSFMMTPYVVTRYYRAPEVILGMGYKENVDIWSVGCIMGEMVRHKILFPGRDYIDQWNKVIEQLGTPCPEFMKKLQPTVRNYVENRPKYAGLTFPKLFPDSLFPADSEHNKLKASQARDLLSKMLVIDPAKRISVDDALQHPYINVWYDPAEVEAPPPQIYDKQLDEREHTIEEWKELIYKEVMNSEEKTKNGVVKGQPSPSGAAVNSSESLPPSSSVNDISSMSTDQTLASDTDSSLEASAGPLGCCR

SMILES: O=C(Cn1cnc2ccccc2c1=O)Nc1ccc(-c2nnc3n2CCCCC3)cc1
- IC50 [1]: 29.5 µM (not active)

SMILES: O=C1NC(=O)N(c2ccccc2)C(=O)/C1=C\C=C\c1ccccc1
- EC50 [2]: > 120 µM (not active)
- EC50 [3]: 8.73 µM (active)
- EC50 (BJ [4]): 2.79 µM (inconclusive)
- EC50 (H4): > 120 µM (not active)
- EC50 (BJ [5]): > 150 µM (inconclusive)
- IC50 (Large T antigen): 95.6 µM (active)
- EC50 (BJ [6]): 4.12 µM (inconclusive)
- EC50 [7]: 4.66 µM (inconclusive)
- EC50 [8]: 15.1 µM (active)
- CC50 [9]: 13 µM (active)

SMILES: CS(=O)(=O)N(CC(=O)NC1CCCCC1)c1cc(C(F)(F)F)ccc1Cl
- EC50 [10]: 10 µM (inconclusive)

SMILES: CCCNC(=O)N1[C@H](C#N)[C@H](c2ccc(C#Cc3cccc(F)c3)cc2)[C@H]1CO
- AC50 [11]: 8.92 µM (active)
- AC50 [12]: 0.00951 µM (active)
- AC50 [13]: < 0.3 µM (active)
- AC50 [14]: 0.00355 µM (active)
- AC50 [15]: 0.0243 µM (active)
- AC50 [16]: 0.00678 µM (active)

SMILES: CC(C)C1C(C#N)=C(N)Oc2[nH]nc(-c3ccc4ccccc4c3)c21 (stereo unspecified)
- IC50 [17]: 2.41 µM (active)

SMILES: CC(=O)c1cccc(CN2CCN(C3CCCCC3)C(CCO)C2)c1 (stereo unspecified)
- IC50 [18]: > 109 µM (inactive)
- IC50 [19]: > 83.3 µM (inactive)

SMILES: COc1cc(C(c2c(C(=O)O)[nH]c3ccccc23)c2c(C(=O)O)[nH]c3ccccc23)ccc1OCc1ccccc1
- EC50 [20]: 47.7 µM (active)
- EC50 [21]: 24.5 µM (active)
- IC50 (Genome polyprotein): 16 µM (active)
- AC50 (cells): 7.4 µM (active)

SMILES: O=C(Nc1ccc(CN2CCOCC2)cc1)c1ccc(Cl)cc1
- EC50 [22]: 0.685 µM (active)
- EC50 [2]: < 0.1 µM (active)
- EC50 [3]: 4.65 µM (active)
- EC50 (H4): 16.1 µM (active)
- EC50 [23]: 0.951 µM (active)
- EC50 [24]: > 12 µM (not active)

SMILES: CC(C(=O)Nc1ccc(Cl)cn1)N(c1ccccc1Cl)S(C)(=O)=O (stereo unspecified)
- EC50 [10]: > 30 µM (inactive)

SMILES: C[C@@H]1CN([C@@H](C)CO)C(=O)c2cc(NC(=O)Nc3ccc(F)cc3)ccc2O[C@@H](C)CCCCO[C@@H]1CN(C)Cc1ccc(C(F)(F)F)cc1
- AC50 (Paired box protein Pax-8): 9.46 µM (active)
- AC50 [25]: 0.363 µM (active)
- AC50 [26]: 33.6 µM (active)
- AC50 [27]: 39.9 µM (active)
